Active and inactive are the calls of the source. No cut-off for these calls is given here.
Assays:
[1] = Cytotoxicity against human HL60 cells assessed as cell viability up to 50 uM after 24 hrs by fluorescence microscopy; assay type: cell-based; settings: hl-60, 24 h
[2] = system: Trypanosoma brucei brucei; test: Antiparasitic activity against Trypanosoma brucei brucei; assay type: functional, organism-based
[3] = Antioxidant activity assessed as ferric ion reducing activity at 2 nM to 200 uM by FRAP assay; assay type: physicochemical; settings: 0.002 µM
HL-60 [4] = test: Protection against H2O2-induced human HL60 cells assessed as reduction in DNA damage at 2.5 uM after 30 mins by comet assay; assay type: functional, cell-based
HL-60 [5] = test: Protection against H2O2-induced human HL60 cells assessed as reduction in DNA damage at 1.25 uM after 30 mins by comet assay; assay type: functional, cell-based
[6] = Cytotoxicity against human HL60 cells assessed as induction of DNA damage at 1.25 to 10 uM after 24 hrs by fluorescence microscopy; assay type: cell-based; settings: hl-60, 24 h
[7] = Cytotoxicity against human HL60 cells assessed as cell viability up to 50 uM after 4 hrs by fluorescence microscopy; assay type: cell-based; settings: hl-60, 4 h
HL-60 [8] = test: Protection against H2O2-induced human HL60 cells assessed as reduction in DNA damage at 10 uM after 30 mins by comet assay; assay type: functional, cell-based
HL-60 [9] = test: Protection against H2O2-induced human HL60 cells assessed as reduction in DNA damage at 50 uM after 30 mins by comet assay; assay type: functional, cell-based

Row | SMILES | Activity [1] | inhibition [2] | Activity [3] | Activity (HL-60 [4]) | Activity (HL-60 [5]) | Activity [6] | Activity [7] | Activity (HL-60 [8]) | Activity (HL-60 [9]) | IC50 [2] [µM]
1 | Cc1cc(O[C@@H]2O[C@@H](C)[C@H](O)[C@@H](O)[C@H]2O)c2c3c(c(O)cc2c1)C(=O)c1c(O[C@@H]2O[C@@H](C)[C@H](O)[C@@H](O)[C@H]2O)cccc1C3=O | Toxic | inactive | Active | Active | Active | Non-toxic | Non-toxic | Active | – | –
2 | CC1(C)CC(O)CC(C)(C)N1[O] | – | – | – | – | – | – | – | – | Active | –
3 | Cc1cc(O[C@@H]2O[C@@H](C)[C@H](O)[C@@H](O)[C@H]2O)c2c3c(c(O[C@@H]4O[C@@H](C)[C@H](O)[C@@H](O)[C@H]4O)cc2c1)C(=O)c1c(O)cccc1C3=O | – | – | – | – | – | – | – | – | – | 15
4 | Cc1cc(O[C@@H]2O[C@@H](C)[C@H](O)[C@@H](O)[C@H]2O)c2c3c(ccc2c1)C(=O)c1c(O[C@@H]2O[C@@H](C)[C@H](O)[C@@H](O)[C@H]2O)cccc1C3=O | Non-toxic | inactive | Active | Active | Active | Non-toxic | Non-toxic | Active | – | –

Reference: ChEMBL document CHEMBL3351910, “Two new antioxidant actinosporin analogues from the calcium alginate beads culture of sponge-associated Actinokineospora sp. strain EG49” (Bioorg Med Chem Lett, 2014)
